Assay results: patent US10159756B2, “Complex of mannosyl serum albumin, method of preparing the same, optical imaging probe and kit comprising the same” (Korea University Research and Business Foundation, priority 2014, dated 2018)

Assays:
lymph nodes = test: Biodistribution after injection into the mouse footpad; format: in vivo
Protocol: Each of the ICG: MSA, prepared in Example 3, and ICG, was treated into U937 cells (Korean Cell Line Bank (KCLB) No. 21593.1) activated with PMA (phorbol 12-myristate 13-acetate, Sigma, USA) (FIG. 9a), and the distribution thereof in the cells was monitored. […] In addition, each of ICG:MSA and ICG was injected into the mouse footpad, and the biodistribution thereof was examined.

[1] = tested on: metastatic sentinel lymph node; test: Detection of metastatic sentinel lymph node (ex vivo fluorescence, H & E staining, immunostaining); format: in vivo, rabbit; conditions: n = 4 for ICG group, n = 5 for ICG:MSA group
Protocol: A VX2 rabbit tumor model (Radiology, 2005; 234:423-430) was established, and after 2 weeks, 60 μM of each of ICG and ICG:MSA was injected subcutaneously into the peritumor of the tumor model. Then, the efficiency with which each of ICG and ICG:MSA detects a sentinel lymph node was examined using a fluorescence imaging system (developed by the applicant). Dissected normal and metastatic lymph nodes were confirmed ex vivo by fluorescence, and whether cancer metastasized to the lymph nodes was examined by H & E tissue staining and immunostaining.

Question: `CC1(C)C(/C=C/C=C/C=C/C=C2\N(CCCCS(=O)(=O)O)c3ccc4ccccc4c3C2(C)C)=[N+](CCCCS(=O)(=O)[O-])c2ccc3ccccc3c21` [ICG, Indocyanine green] was tested. Which biodistribution (lymph nodes) did it give?
Answer: distributed in the popliteal lymph nodes and did spread to the axillary lymph nodes within a short time

Question: And the “Metastatic SLN rate” value [1]?
Answer: 50%

Question: What about the Total [1] of the same compound?
Answer: 2
